Test results: PubChem BioAssay AID248 (DTP/NCI, 2004)
Several values for one entry are separate records, joined by “and”; a condition that tells them apart may be missing. Equal values may be shown once. Inconclusive results and toxic doses are left out. Rule as the data show it: active = T/C of 150% or more; inactive = T/C below 125%.

Test system: L1210 leukemia ip in BDF1 mice, survival T/C
Test: NCI In Vivo Anticancer Drug Screen. Data for tumor model L1210 Leukemia (intraperitoneal) in B6D2F1 (BDF1) mice
Conditions: endpoint: mean survival time, higher = longer survival
Procedure, shortened: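 In this screen, tumor-bearing mice given compound are compared to those given vehicle, and their survival values are reported as a treated-to-control quotient.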

[1] = dose: 100.0 mg/kg/injection, schedule: Q04DX003 (ip), vehicle: saline
[2] = dose: 200.0 mg/kg/injection, schedule: Q04DX003 (ip), vehicle: saline
[3] = dose: 400.0 mg/kg/injection, schedule: Q04DX003 (ip), vehicle: saline
[4] = dose: 50.0 mg/kg/injection, schedule: Q01DX009 (ip), vehicle: Klucel (hydroxypropylcellulose) (HPC)
[5] = dose: 100.0 mg/kg/injection, schedule: Q01DX009 (ip), vehicle: Klucel (hydroxypropylcellulose) (HPC)
[6] = dose: 100.0 mg/kg/injection, schedule: Q01DX001 (ip), vehicle: saline
[7] = dose: 200.0 mg/kg/injection, schedule: Q01DX001 (ip), vehicle: saline
[8] = dose: 400.0 mg/kg/injection, schedule: Q01DX001 (ip), vehicle: saline
[9] = dose: 100.0 mg/kg/injection, schedule: Q01DX009 (ip), vehicle: saline with Tween-80
[10] = dose: 200.0 mg/kg/injection, schedule: Q01DX009 (ip), vehicle: saline with Tween-80
[11] = dose: 50.0 mg/kg/injection, schedule: Q01DX001 (ip), vehicle: carboxymethylcellulose (CMC)
[12] = dose: 100.0 mg/kg/injection, schedule: Q01DX001 (ip), vehicle: carboxymethylcellulose (CMC)
[13] = dose: 200.0 mg/kg/injection, schedule: Q01DX001 (ip), vehicle: carboxymethylcellulose (CMC)
[14] = dose: 100.0 mg/kg/injection, schedule: Q01DX009 (ip), vehicle: saline
[15] = dose: 200.0 mg/kg/injection, schedule: Q01DX009 (ip), vehicle: saline
[16] = dose: 100.0 mg/kg/injection, schedule: Q04DX003 (ip), vehicle: Klucel (hydroxypropylcellulose) (HPC)
[17] = dose: 200.0 mg/kg/injection, schedule: Q01DX009 (ip), vehicle: Klucel (hydroxypropylcellulose) (HPC)
[18] = dose: 200.0 mg/kg/injection, schedule: Q04DX003 (ip), vehicle: Klucel (hydroxypropylcellulose) (HPC)
[19] = dose: 400.0 mg/kg/injection, schedule: Q04DX003 (ip), vehicle: Klucel (hydroxypropylcellulose) (HPC)

Measured: T/C

CCCCC(=O)NCCc1ccc2c([nH]c3ccccc32)c1C
inactive: [1] 96 % of control | [2] 104 % of control | [3] 96 % of control

O=C(Nc1cccc(F)c1)Nc1nccs1
inactive: dose: 25.0 mg/kg/injection, schedule: Q01DX009 (ip), vehicle: Klucel (hydroxypropylcellulose) (HPC) 89 % of control | [4] 99 % of control | [5] 95 % of control and 97 % of control

COc1ccc2c(C)c(C)[nH]c2c1
inactive: dose: 50.0 mg/kg/injection, schedule: Q01DX001 (ip), vehicle: saline 101 % of control | [6] 109 % of control | [7] 115 % of control | [8] 104 % of control

Cc1ccc(S(=O)(=O)NC(=O)C(C)Br)cc1 (stereo unspecified)
inactive: dose: 150.0 mg/kg/injection, schedule: Q01DX001 (ip), vehicle: steriod suspending solution 95 % of control | dose: 300.0 mg/kg/injection, schedule: Q01DX001 (ip), vehicle: steriod suspending solution 95 % of control

CN(C)S(=O)(=O)c1ccc(NC(=O)C(Cl)Cl)cc1
inactive: dose: 100.0 mg/kg/injection, schedule: Q01DX001 (ip), vehicle: other 100 % of control | [9] 100 % of control | dose: 100.0 mg/kg/injection, schedule: Q04DX003 (ip), vehicle: other 103 % of control | dose: 200.0 mg/kg/injection, schedule: Q01DX001 (ip), vehicle: other 107 % of control | [10] 100 % of control | dose: 200.0 mg/kg/injection, schedule: Q04DX003 (ip), vehicle: other 101 % of control | dose: 400.0 mg/kg/injection, schedule: Q01DX001 (ip), vehicle: other 100 % of control | dose: 400.0 mg/kg/injection, schedule: Q01DX009 (ip), vehicle: saline with Tween-80 86 % of control | dose: 400.0 mg/kg/injection, schedule: Q04DX003 (ip), vehicle: other 101 % of control

CCC(C)(C)c1ccc(OCCOS(=O)(=O)c2ccc(C)cc2)cc1
inactive: dose: 100.0 mg/kg/injection, schedule: Q01DX009 (ip), vehicle: saline sonified 96 % of control | dose: 200.0 mg/kg/injection, schedule: Q01DX009 (ip), vehicle: saline sonified 108 % of control | dose: 400.0 mg/kg/injection, schedule: Q01DX009 (ip), vehicle: saline sonified 97 % of control

O=C(COc1ccc(Cl)c(Cl)c1)NCc1ccc[n+](Cc2ccc(S(=O)(=O)F)cc2Cl)c1
inactive: dose: 25.0 mg/kg/injection, schedule: Q04DX003 (ip), vehicle: saline with Tween-80 109 % of control | dose: 50.0 mg/kg/injection, schedule: Q04DX003 (ip), vehicle: saline with Tween-80 101 % of control | dose: 100.0 mg/kg/injection, schedule: Q04DX003 (ip), vehicle: saline with Tween-80 86 % of control

Oc1ccccc1C1N(Cc2ccc(N(CCCl)CCCl)cc2Cl)CCCN1Cc1ccc(N(CCCl)CCCl)cc1Cl
inactive: [11] 96 % of control | [12] 90 % of control | [13] 94 % of control | dose: 400.0 mg/kg/injection, schedule: Q01DX001 (ip), vehicle: carboxymethylcellulose (CMC) 102 % of control

O=C(COc1ccc(Cl)c(Cl)c1)NCc1ccncc1
inactive: dose: 100.0 mg/kg/injection, schedule: Q01DX001 (ip), vehicle: Klucel (hydroxypropylcellulose) (HPC) 93 % of control | dose: 200.0 mg/kg/injection, schedule: Q01DX001 (ip), vehicle: Klucel (hydroxypropylcellulose) (HPC) 102 % of control | dose: 400.0 mg/kg/injection, schedule: Q01DX001 (ip), vehicle: Klucel (hydroxypropylcellulose) (HPC) 102 % of control

CC(=O)N1CCCCC1
inactive: [11] 97 % of control | [12] 94 % of control | [14] 100 % of control | [13] 100 % of control | [15] 98 % of control

Cc1ccc(S(=O)(=O)OCC2C(c3ccccc3)CCC(c3ccccc3)C2COS(=O)(=O)c2ccc(C)cc2)cc1 (stereo unspecified)
inactive: [5] 90 % of control | [16] 103 % of control | [17] 94 % of control | [18] 105 % of control | [19] 100 % of control

O=S(=O)(/C=C/c1ccccc1)N1CCOCC1
inactive: dose: 100.0 mg/kg/injection, schedule: Q01DX001 (ip), vehicle: acetone 111 % of control | dose: 100.0 mg/kg/injection, schedule: Q01DX009 (ip), vehicle: acetone 90 % of control | dose: 100.0 mg/kg/injection, schedule: Q04DX003 (ip), vehicle: acetone 100 % of control | dose: 200.0 mg/kg/injection, schedule: Q01DX001 (ip), vehicle: acetone 102 % of control | dose: 200.0 mg/kg/injection, schedule: Q01DX009 (ip), vehicle: acetone 93 % of control | dose: 200.0 mg/kg/injection, schedule: Q04DX003 (ip), vehicle: acetone 105 % of control | dose: 400.0 mg/kg/injection, schedule: Q01DX001 (ip), vehicle: acetone 101 % of control | dose: 400.0 mg/kg/injection, schedule: Q01DX009 (ip), vehicle: acetone 93 % of control | dose: 400.0 mg/kg/injection, schedule: Q04DX003 (ip), vehicle: acetone 97 % of control

O=C(O)C(F)(F)F
inactive: dose: 50.0 mg/kg/injection, schedule: Q01DX001 (ip), vehicle: water 112 % of control | dose: 50.0 mg/kg/injection, schedule: Q01DX001 (iv), vehicle: water 116 % of control | [6] 102 % of control | dose: 100.0 mg/kg/injection, schedule: Q01DX001 (iv), vehicle: water 114 % of control | [14] 100 % of control | dose: 100.0 mg/kg/injection, schedule: Q04DX002 (ip), vehicle: saline 96 % of control and 98 % of control | [1] 95 % of control | [7] 104 % of control | [15] 95 % of control and 96 % of control | dose: 200.0 mg/kg/injection, schedule: Q04DX002 (ip), vehicle: saline 94 % of control and 89 % of control | [2] 93 % of control | [8] 98 % of control | dose: 400.0 mg/kg/injection, schedule: Q01DX009 (ip), vehicle: saline 98 % of control and 90 % of control | dose: 400.0 mg/kg/injection, schedule: Q04DX002 (ip), vehicle: saline 93 % of control and 94 % of control | [3] 91 % of control

C=CS(=O)CCCCCCC (stereo unspecified)
inactive: dose: 12.5 mg/kg/injection, schedule: Q04DX002 (ip), vehicle: saline with Tween-80 106 % of control | dose: 25.0 mg/kg/injection, schedule: Q04DX002 (ip), vehicle: saline with Tween-80 103 % of control | dose: 50.0 mg/kg/injection, schedule: Q04DX002 (ip), vehicle: saline with Tween-80 109 % of control

Nc1ccn(CC(=O)N2CCC3(CC2)SSC2(CCN(C(=O)Cn4ccc(N)nc4=O)CC2)S3)c(=O)n1
inactive: [1] 97 % of control | [2] 91 % of control | [3] 97 % of control

c1ccc2c(c1)sc1cc3ccncc3cc12
inactive: dose: 75.0 mg/kg/injection, schedule: Q01DX001 (ip), vehicle: other 110 % of control | dose: 150.0 mg/kg/injection, schedule: Q01DX001 (ip), vehicle: other 101 % of control | dose: 300.0 mg/kg/injection, schedule: Q01DX001 (ip), vehicle: other 107 % of control

O=[N+]([O-])n1cnnc1-c1ccccc1
inactive: dose: 12.5 mg/kg/injection, schedule: Q04DX003 (ip), vehicle: gum acacia 96 % of control | dose: 25.0 mg/kg/injection, schedule: Q04DX003 (ip), vehicle: gum acacia 102 % of control | dose: 50.0 mg/kg/injection, schedule: Q04DX003 (ip), vehicle: gum acacia 98 % of control

COc1cc(C(=O)OC2=CC(=O)c3nc(OC(=O)c4cc(OC)c(OC)c(OC)c4)ccc3C2=O)cc(OC)c1OC
inactive: [6] 93 % of control | [7] 91 % of control | [8] 95 % of control

COc1cc(C)c(C2NC(=O)c3ccccc3N2)cc1C (stereo unspecified)
inactive: [4] 95 % of control | [5] 104 % of control and 109 % of control | [16] 97 % of control | dose: 150.0 mg/kg/injection, schedule: Q01DX009 (ip), vehicle: Klucel (hydroxypropylcellulose) (HPC) 109 % of control | [17] 100 % of control | [18] 97 % of control | dose: 400.0 mg/kg/injection, schedule: Q01DX009 (ip), vehicle: Klucel (hydroxypropylcellulose) (HPC) 107 % of control | [19] 103 % of control

Oc1ccc2ccccc2c1Cc1cccc2ccccc12
inactive: [9] 90 % of control | [10] 95 % of control

CO[Si](C)(C)C
inactive: [6] 98 % of control | [7] 98 % of control | [8] 100 % of control
